# Experimental data published in patent publication US12049519B2, “Peptide for the delivery of anionic materials” (The Queen's University of Belfast, priority 2019, dated 2024).
# Residues, ends and D or L forms follow the SMILES beside them.
# Experiments:
# pEGFP-N1 = test: DNA complexation efficiency assay, Quant-iT PicoGreen; assay type: binding
# Method: FIG. 2: DNA complexation efficiency assay using Quant-iT™ PicoGreen® reagent indicating the efficiency of A) Peptide 7, B) Peptide 8, C) Peptide 9, D) Peptide 10, E) Peptide 11 and F) Peptide 12 to complex 0.5 μg pEGFP-N1 (Accession Number: U55762.1) (a pDNA) at a range of N:P ratios. Peptide/pEGFP-N1 complexes were prepared at a range of N:P ratios from 1 to 20. 50 μl samples of each N:P ratio was pipetted into a 96-well plate with Quant-iT™ PicoGreen® reagent. Sample fluorescence was then analysed by excitation at 480 nm and the fluorescence emission intensity measured at 520 nm using a Synergy 2 Multi-Mode Microplate Reader. Fluorescence was then calculated as a percentage of the control and converted to the percentage DNA complexed.
# Peptide complexes and composite complexes were prepared at a range of N:P ratios from 1 to 20 to complex 0.5 μg pEGFP-N1. Quant-iT™ PicoGreen® Reagent (Life Technologies, UK) was diluted 1:200 in TAE buffer and 50 μl was added to each 50 μl sample. Sample fluorescence was analysed by excitation at 480 nm and the fluorescence emission intensity measured at 520 nm using a Synergy 2 Multi-Mode Plate Reader. Fluorescence intensity of a naked pDNA control (an N:P ratio of 0) was taken as 100% fluorescence and 0% complexed, and any fluorescence detected from samples was taken to be un-complexed. […]
# [1] = test system: MCF-7 breast cancer cells; test: Endosomal escape study: transfection with and without chloroquine; assay type: cell-based; settings: N:P 10, with and without 10 μM chloroquine, cell line not given
# Method: (§1) FIG. 6: Transfection efficiency of nanoparticles comprising pEGFP-N1 and Peptides 7 to 12 assessed in A) MCF-7 and B) MDA-MB-231 breast cancer cells with and without chloroquine, a reagent known to facilitate endosomal escape. Cells were transfected for 4 h with peptide/pEGFP-N1 nanoparticles at N:P 10. 10 μM chloroquine was added to cells in appropriate wells along with the nanoparticles. Following transfection, medium was replaced with DMEM supplemented with 10% FCS and incubated for 48 h before quantification of transfection efficiency by flow cytometry at 4% gating. […] Statistical analysis was carried out using an unpaired t test (*=P<0.05, ** =P<0.01, ***=P<0.001)
# (§2) In some instances, cells were treated with chloroquine (a reagent known to facilitate endosomal escape) (FIG. 6). For endosomal escape studies, 1 mM chloroquine (Sigma-Aldrich, UK) was added to the cells immediately before transfection, giving a final concentration of 10 μM chloroquine in the nanoparticle transfection mix.
# [2] = test system: MDA-MB-231 breast cancer cells; test: as above; assay type: cell-based; settings: N:P 10, with and without 10 μM chloroquine, cell line not given
# Method: as §1, §2
# [3] = test system: MCF-7 breast cancer cells; test: Transfection with peptide/pEGFP-N1 nanoparticles, flow cytometry; assay type: cell-based; settings: N:P ratios of 6 to 10
# Method: (§3) FIG. 5: Transfection efficiency of nanoparticles comprising pEGFP-N1 and A) Peptide 7, B) Peptide 8, C) Peptide 9, D) Peptide 10, E) Peptide 11 and F) Peptide 12 assessed in MCF-7 and
# (§4) MDA-MB-231 breast cancer cells. Cells were transfected for 4 h with peptide/pEGFP-N1 nanoparticles at a range of N:P ratios. Following transfection, medium was replaced with DMEM supplemented with 10% FCS and incubated for 48 h before quantification of transfection efficiency by flow cytometry at 4% gating.
# (§5) In order to assess the ability of peptide and composite nanoparticles to transfect cells, transfections were carried out in 96-well tissue culture plates.
# (§6) MCF-7 and MDA-MB-231 breast cancer cells were seeded at a density of 2.25×10^4 and 2.5×10^4 cells per well respectively, and allowed to adhere overnight at 37° C. with 5% CO2 (FIG. 5).
# (§7) Medium was replaced with OptiMEM (Invitrogen, UK) 2 h prior to transfection and the cells returned to the incubator at 37° C. with 5% CO2. […]
# (§8) Transfected cells were washed with phosphate buffered saline (PBS) and 2× trypsin used to detach cells at 37° C. in 5% CO2 atmosphere. […] A FACScalibur system (BD Bioscience, UK) or Accuri C6 Plus (BD Bioscience, UK) were used for the detection of green fluorescent protein (GFP) expressing cells at 4% gating (to reduce interference of auto-fluorescence) and results are reported as mean±SEM, n=3.
# [4] = test system: MDA-MB-231 breast cancer cells; test: as above; assay type: cell-based; settings: N:P ratios of 6 to 10
# Method: as §3, §4, §5, §6, §7, §8
# [5] = Nanoparticle hydrodynamic size, Malvern Zetasizer (DLS); assay type: physicochemical; settings: low N:P ratios
# Method: FIG. 3: Mean hydrodynamic size and zeta potential of nanoparticles prepared with pEGFP-N1 and A) Peptide 7, B) Peptide 8, C) Peptide 9, D) Peptide 10, E) Peptide 11 or F) Peptide 12 at a range of N:P ratios. For example, at an N:P ratio of 10 with Peptide 7, nanoparticles comprise 0.5 μg of pEGFP-N1 and 5.7 μg Peptide 7. Nanoparticles were made up to 50 μl with molecular grade water and incubated for 30 min at room temperature before hydrodynamic size and zeta potential were measured using a Malvern Zetasizer Nano ZS instrument.
# Peptide complexes (an N:P ratio of 0) and composite complexes were prepared at a range of N:P ratios from 1 to 20 to complex 0.5 μg pEGFP-N1. For example, at an N:P ratio of 10 with Peptide 7, nanoparticles comprise 0.5 μg of pEGFP-N1 and 5.7 μg Peptide 7. Nanoparticles were made up to 50 μl with molecular grade water and incubated for 30 min at room temperature before a Malvern Zetasizer Nano ZS instrument with DTS software (Malvern Instruments, UK) was used to measure the mean hydrodynamic particle size of nanoparticles. A 40 μl disposable microcuvette was used to measure the mean size by number of nanoparticles formed by Dynamic Light Scattering (DLS) at 20° C. Results were reported as mean±SEM, and all measurements were performed in triplicate.
# [6] = test system: breast and prostate cancer cell lines; test: Cell viability, MTS assay; assay type: cell-based; settings: even at a high N:P ratio of 20
# Method: (§9) FIG. 11: Cell viability of A) MCF-7 and MDA-MB-231 breast cancer cells, B) DU145 and PC-3 prostate cancer cells, and C) NCTC-929 fibroblast, HMEC-1 endothelial, and HaCaT keratinocyte cells following transfection with Peptide 10. Cells were transfected with Peptide 10 at a range of N:P ratios for 4 h before replacement with complete medium. After 24 h, cells were treated with MTS reagent for 2 h in dark conditions. A Bio-Tek Powerwave XS plate reader was then used to read absorbance at 490 nm with Gen5 software and any background absorbance was subtracted from readings. Untreated cells were considered to be 100% viable and viability under all conditions was calculated relative to this.
# (§10) Cell viability was evaluated by MTS assay with CellTiter 96 AQueous One Solution Cell Proliferation Assay (Promega, UK). MDA-MB-231 and PC-3 cells were seeded at a density of 1.5×10^4 cells per well and MCF-7, and DU145cells seeded at 1.2×10^4 cells per well, ARPE, NCTC-929, HMEC-1, and HaCaT cells seeded at 1.0×10^4, and allowed to adhere in a 96 well plate. Cells were transfected CellTiter reagent was added to each well 24 h post transfection to give a final volume of 10% and returned to the incubator for 2 h. Absorbance was read at 490 nm using a Bio-Tek Powerwave XS plate reader with Gen5 software and any background absorbance was subtracted from readings. Cell viability was expressed as a percentage of the untreated control where the untreated control is considered to be 100% viable.
# HMEC-1 endothelial cells = test: Cell viability, MTS assay; assay type: cell-based; settings: irrespective of the N:P ratio
# Method: as §9, §10
# HaCaT keratinocyte cells = test: Cell viability, MTS assay; assay type: cell-based; settings: N:P ratios of 15 and 20
# Method: as §9, §10
# [7] = test system: NCTC-929 fibroblast cells; test: Cell viability, MTS assay; assay type: cell-based; settings: N:P ratios of 15 and 20
# Method: as §9, §10
# [8] = Cell viability, MTS assay (FIGS. 11 and 12B); assay type: cell-based; settings: N:P ratio of 6 to 15; 24 h post transfection; relative to untreated cells
# Method: as §9
# FIG. 12: Transfection efficiency and cell viability of nanoparticles comprising pEGFP-N1 and Peptide 10 assessed in ARPE human retinal cells. (A) Cells were transfected for 4 h with Peptide 10/pEGFP-N1 nanoparticles at a range of N:P ratios. Following transfection, medium was replaced with culture medium supplemented with 10% serum and incubated for 48 h before imaging using i) light and ii) fluorescence microscopy. Scale bar=400 μm. iii) Quantification of transfection efficiency was subsequently analysed by flow cytometry at 4% gating. […] A Bio-Tek Powerwave XS plate reader was then used to read absorbance at 490 nm with Gen5 software and any background absorbance was subtracted from readings. […]
Molecule,maximum complexation efficiency (pEGFP-N1) [%],transfection regardless of chloroquine [1],transfection regardless of chloroquine [2],% transfection [3] [%],% transfection [4] [%],particle size as a function of N:P ratio [5],toxicity (cell viability studies) [6],cytotoxic effects (cell viability studies) (HMEC-1 endothelial cells),toxicity (cell viability studies) (HaCaT keratinocyte cells),toxicity (cell viability studies) [7],viability at 24 h [8] [%]
"CEHHRRRWRRRHHEC [Peptide 12, comparative linear peptide, outside the scope of the invention]",70,Very low,Very low,> 10,> 10,–,–,–,–,–,–
"CRRRRWRRRRC [Peptide 11, comparative linear peptide, outside the scope of the invention]",–,Very low,Very low,–,–,large particles form at lower N:P ratios,–,–,–,–,–
"N=C(N)NCCC[C@H](NC(=O)[C@H](CCCNC(=N)N)NC(=O)[C@H](CCCNC(=N)N)NC(=O)[C@H](Cc1c[nH]c2ccccc12)NC(=O)[C@H](CCCNC(=N)N)NC(=O)[C@H](CCCNC(=N)N)NC(=O)[C@H](CCCNC(=N)N)NC(=O)[C@H](Cc1c[nH]cn1)NC(=O)[C@H](Cc1c[nH]cn1)NC(=O)[C@H](Cc1c[nH]cn1)NC(=O)[C@@H](N)CS)C(=O)N[C@@H](Cc1c[nH]cn1)C(=O)N[C@@H](Cc1c[nH]cn1)C(=O)N[C@@H](Cc1c[nH]cn1)C(=O)N[C@@H](CS)C(=O)O [Peptide 10, CHHHRRRWRRRHHHC] (H-CHHHRRRWRRRHHHC-OH)",–,–,–,–,–,–,"weak toxicity, if any",no cytotoxic effects,weak toxicity,weak toxicity,> 60
